US7626044B2, “Triptolide derivatives and their uses” (priority 2002, dated 2009)
Read-outs that look alike come from different tables or passages of the source.

Tests used:
[1] = tested on: collagen-induced arthritis; assay: Collagen-induced arthritis in DBA/1 mice; type: in vivo, mouse
[2] = tested on: WI-38 (human lung fibroblasts); assay: Cell proliferation, WI-38; type: cell-based; settings: read-out: Inhibitory effect on tumor cell proliferation IC50
[3] = tested on: C57BL/6 skin allograft on BALB/c mice; assay: Murine skin allograft transplantation; type: in vivo, mouse; settings: C57BL/6 skin to BALB/c mice; daily i.p.; preliminary results
Experimental: Full-thickness tail skin was aseptically harvested from adult C57BL/6 mice.
The skin allografts were transplanted onto the flank of adult recipient BALB/c mice.
Engrafted mice were administered LLDT-8 daily or, as a control, phosphate-buffered saline (PBS) by intraperitoneal (i.p.) injection.

[4] = tested on: T lymphocyte; assay: ConA induced T-lymphocyte proliferation ([3H]thymidine); type: cell-based, mouse
Experimental: Mice were sacrificed by cervical dislocation, and spleens were collected under sterile conditions then teased through a nylon mesh. Erythrocytes were lysed. Cells were washed and resuspended at 5×10^6/ml in RPMI-1640 media containing 10% FBS. For one 96 well plate assay, 100 pt of cells, 50 μl of sample and 50 μl of ConA/LPS were added into each well with the final volume 200 μl. The control wells were set up with 50 μl of RPMI-1640 media instead of ConA/LPS.
Plates were incubated for 48 h (ConA) or 60 h (LPS), respectively, at 37° C., 5% CO2 in a humidified incubator. In the last 8 h of incubation, 25 μl (1.9×10^10 Bq) of [^3H]thymidine was added. After plates were incubated for 48 h, the plates (ConA) were stored at −20° C., then after another 12 h, the plates (LPS) were stored at −20° C.
At the end of incubation, pulsed cells were harvested on a glass filter using a cell harvester ([…]96®, TOMTEC) and allowed to dry. Incorporation of radioactive thymidine was determined by using liquid Scintillation and Luminescence Counters (MicroBeta Trilux®, PerkinElmer).

[5] = tested on: HO-8910 (human ovary cancer cells); assay: Tumor cell proliferation, HO-8910; type: cell-based; settings: read-out: Inhibitory effect on tumor cell proliferation IC50
[6] = tested on: mice; assay: Acute toxicity (LD50) test in mice, intraperitoneal injection; type: in vivo, mouse; settings: single intraperitoneal injection
Experimental: Mice were single administered with LLDT-8 by intraperitoneal injection, and observed for clinical signs of toxicity immediately and the following 14 days. Necropsy was performed on all animals that died and on all survivors at the end of the 2-week study. Death was seen from the next day after treatment and reached a peak at the 2-4 day. All gross pathological changes should be recorded for each animal. There was no gender difference in survival.
LLDT-8 is much less toxic than its parent compound, […].

[7] = tested on: MCF-7 (human breast cancer cell); assay: Tumor cell proliferation, MCF-7; type: cell-based; settings: read-out: Inhibitory effect on tumor cell proliferation IC50
[8] = tested on: anti-SRBC specific antibodies production by B lymphocytes; type: in vivo, mouse; settings: ICR mice
[9] = tested on: rat adjuvant arthritis; assay: Rat adjuvant arthritis (AA), drug prevention; type: in vivo
Experimental: SD rats were immunized on day 0 by intradermal injection of Complete Freund's adjuvant (CFA), containing 10 mg heat-inactivated BCG in 1 ml paraffin oil, into the left hind paw in 0.1 ml for each rat. Right hind paw volume was determined before immunization (basic value, day 0) and repeated every 4 days from day 12. The polyarthritis severity was graded on a scale of 0-4: 0=no swelling; 1=isolated phalanx joint involvement; 2=involvement of phalanx joint and digits; 3=involvement of the entire region down to the ankle; 4=involvement of entire paw, including ankle. The maximum joint score was 16 for each rat.
Lymphocyte proliferation assay: Splenocytes were prepared aseptically from AA rat at day 28 and resuspended in RPMI-1640 medium supplemented with 10% fetal bovine serum.
5×10^5 cells each well were inoculated into 96-well plate with ConA or LPS in a final volume of 200 μl. Cells were cultured in 5% CO2 incubator at 37° C. for 48 h. Cells were pulsed with 1.9×10^10 Bq/well of [^3H]-thymidine 7-8 h before harvest. After the culture finished, cells were harvested onto glass fiber filters and the incorporated radioactivity was counted by a Beta Scintillator (MicroBeta Trilux, PerkinElmer Life Sciences).

SMILES: CC(C)[C@]12O[C@H]1[C@@H]1O[C@]13[C@]1(O[C@H]1C[C@@]1(O)C4=C(CC[C@]31C)C(=O)OC4)[C@@H]2O [LLDT-8, (5R)-5-hydroxytriptolide]
- suppressive effect on CIA at lower doses ([1]; 0.2 and 0.04 mg/Kg/d, dose-dependent): Suppressive effect was also observed
- Anti-collagen specific antibody levels ([1]; compared with untreated CIA mice): reduced dose-dependently
- severity and incidence of CIA ([1]; i.p. 1 mg/Kg/d, compared with untreated CIA mice): effectively reduced severity and incidence of CIA
- IC50 [2]: 480 nM
- murine allograft survival [3]: prolonged murine allograft survival
- ED50 for inhibiting T lymphocyte proliferation induced by ConA ([4]; 48 h): 0.05812 µg/mL
- EC50 ([4]; 48 h, read-out: ED50 for inhibiting T lymphocyte proliferation induced by ConA): 155 nM
- inhibitory activity weaker than CsA (T lymphocyte proliferation) ([4]; compared with CsA): about 5.4 fold
- IC50 [5]: 220 nM
- LD50 95% confidence limits ([6]; mice): 7.7 to 11.3 mg/kg
- LD50 ([6]; mice, 14 days, Bliss' method): 9.3 mg/kg
- pathological changes in tissues by gross necropsy in survivors at day 15 [6]: No significant pathological changes
- IC50 [7]: 350 nM
- QHS OD value ([8]; Table 11, i.p. 4 times, dosage 0.04 mg/kg, control 0.208): 0.175
- C3 ([8]; Table 11, i.p. 4 times, dosage 0.04 mg/kg, control 16.8): 19.5 μg/10 μl
- Body weight ([8]; Table 11, i.p. 4 times, dosage 0.04 mg/kg, control 23.5): 23.0 g
- Thymus ([8]; Table 11, i.p. 4 times, dosage 0.04 mg/kg, control 39.6): 32.1 mg
- Spleen ([8]; Table 11, i.p. 4 times, dosage 0.04 mg/kg, control 66.4): 74.8 mg/10 g
- Total IgG ([8]; Table 11, i.p. 4 times, dosage 0.04 mg/kg, control 185.5): 176.6 μg/10 μl
- QHS OD value ([8]; Table 11, i.p. 4 times, dosage 0.2 mg/kg, control 0.208): 0.162
- C3 ([8]; Table 11, i.p. 4 times, dosage 0.2 mg/kg, control 16.8): 19.7 μg/10 μl
- Body weight ([8]; Table 11, i.p. 4 times, dosage 0.2 mg/kg, control 23.5): 23.1 g
- Thymus ([8]; Table 11, i.p. 4 times, dosage 0.2 mg/kg, control 39.6): 36.9 mg
- Spleen ([8]; Table 11, i.p. 4 times, dosage 0.2 mg/kg, control 66.4): 76.3 mg/10 g
- Total IgG ([8]; Table 11, i.p. 4 times, dosage 0.2 mg/kg, control 185.5): 165.9 μg/10 μl
- QHS OD value ([8]; Table 11, i.p. 4 times, dosage 1 mg/kg, control 0.208): 0.158
- C3 ([8]; Table 11, i.p. 4 times, dosage 1 mg/kg, control 16.8): 19.4 μg/10 μl
- Body weight ([8]; Table 11, i.p. 4 times, dosage 1 mg/kg, control 23.5): 22.3 g
- Thymus ([8]; Table 11, i.p. 4 times, dosage 1 mg/kg, control 39.6): 36.6 mg
- Spleen ([8]; Table 11, i.p. 4 times, dosage 1 mg/kg, control 66.4): 59.6 mg/10 g
- Total IgG ([8]; Table 11, i.p. 4 times, dosage 1 mg/kg, control 185.5): 182.9 μg/10 μl
- QHS OD value ([8]; Table 12, p.o. 4 times, dosage 0.04 mg/kg, control 0.38): 0.23
- C3 ([8]; Table 12, p.o. 4 times, dosage 0.04 mg/kg, control 7.9): 6.7 μg/10 μl
- Body weight ([8]; Table 12, p.o. 4 times, dosage 0.04 mg/kg, control 23.4): 23.0 g
- Thymus ([8]; Table 12, p.o. 4 times, dosage 0.04 mg/kg, control 28.8): 28.7 mg
- Spleen ([8]; Table 12, p.o. 4 times, dosage 0.04 mg/kg, control 55.7): 69.0 mg/10 g
- Total IgG ([8]; Table 12, p.o. 4 times, dosage 0.04 mg/kg, control 117): 123 μg/10 μl
- QHS OD value ([8]; Table 12, p.o. 4 times, dosage 0.2 mg/kg, control 0.38): 0.34
- C3 ([8]; Table 12, p.o. 4 times, dosage 0.2 mg/kg, control 7.9): 7.9 μg/10 μl
- Body weight ([8]; Table 12, p.o. 4 times, dosage 0.2 mg/kg, control 23.4): 24.0 g
- Thymus ([8]; Table 12, p.o. 4 times, dosage 0.2 mg/kg, control 28.8): 36.6 mg
- Spleen ([8]; Table 12, p.o. 4 times, dosage 0.2 mg/kg, control 55.7): 61.6 mg/10 g
- Total IgG ([8]; Table 12, p.o. 4 times, dosage 0.2 mg/kg, control 117): 116 μg/10 μl
- QHS OD value ([8]; Table 12, p.o. 4 times, dosage 1 mg/kg, control 0.38): 0.24
- C3 ([8]; Table 12, p.o. 4 times, dosage 1 mg/kg, control 7.9): 6.8 μg/10 μl
- Body weight ([8]; Table 12, p.o. 4 times, dosage 1 mg/kg, control 23.4): 23.0 g
- Thymus ([8]; Table 12, p.o. 4 times, dosage 1 mg/kg, control 28.8): 32.5 mg
- Spleen ([8]; Table 12, p.o. 4 times, dosage 1 mg/kg, control 55.7): 63.7 mg/10 g
- Total IgG ([8]; Table 12, p.o. 4 times, dosage 1 mg/kg, control 117): 118 μg/10 μl
- body weight decrease in AA rat ([9]; LLDT-8 3, 1 and 0.2 mg/Kg/d, CsA 10 mg/Kg/d): abrogation of body weight decrease
- immune cell infiltration, synovial tissue proliferation, cartilage erosion ([9]; compared with AA model group): marked decrease of immune cell infiltration, smaller degree of synovial tissue proliferation, and less cartilage erosion
- right hind paw swelling and polyarthritic symptoms ([9]; i.p. day −2 to day 28, LLDT-8 3, 1 and 0.2 mg/Kg/d, CsA 10 mg/Kg/d): diminished the right hind paw swelling and polyarthritic symptoms
- polyarthritis severity ([9]; score 0-4 per paw): amelioration of established polyarthritis
- proliferation of B splenocytes induced by LPS ([9]; splenocytes from AA rat at day 28): inhibited the proliferation of B splenocytes induced by LPS
